Results from paper PMC7170299, “Design, synthesis, molecular modelling and biological evaluation of novel 3-(2-naphthyl)-1-phenyl-1H-pyrazole derivatives as potent antioxidants and 15-Lipoxygenase inhibitors” (Journal of Enzyme Inhibition and Medicinal Chemistry, 2020).

Columns and labels:
[1] = tested on: lipid peroxidation (MDA) in liver; assay: In vivo lipid peroxide level (TBARS/MDA) in liver homogenate; design: species or system male Wistar albino rats; settings: rat liver; 100 mg/kg orally for 3 days; mean ± SEM, n = 6
Protocol: (§1) The complete progress of the experiment was conducted using male Wistar albino rats (200–250 g), delivered by the Institutional Breeding House, Egypt, reared and maintained in the animal house of the institution. The animals had free access to food and water ad libitum and maintained in a controlled environment under standard conditions of temperature and humidity with an alternating 12 h light and dark cycle for about a week for acclimatization. The protocol of the study was approved by the Animal Ethics Committee of the Faculty of Pharmacy, Helwan University (ethical code number: 05A2019; date: October 2019). The study was conducted in accordance with the EC, directive 86/609/EEC for animal experiments.
(§2) Rats are weighed at the beginning and at the end of experiment. Fifty-four male albino rats (n=6) were divided into nine different groups. Group I served as a control group and treated with the same volume vehicle only. Group II treated with 100 mg/kg of Ascorbic acid as standard antioxidant drug. Groups (III–IX) orally administered 100 mg/kg of compounds 3a, 4e, 5b, 5c, 6a, 6c, 6e, respectively, for 3 days. The animals were sacrificed by cervical dislocation 24 h after the last dose. Sacrificing is carried out at the same time of the day, to avoid the circadian variation in the level of tissue GSH[53]. Each liver was excised, weighed, rinsed in ice-cold normal saline and frozen for not more than 72 h await analysis of endogenous antioxidant status (GSH levels and CAT activity) and lipid peroxide concentrations. For performing biochemical assays, a 10% liver homogenate in 10 mM phosphate buffer was prepared using tissue homogeniser (Glas-Col®, Cat no.099C K6424, TERRE HAUTE, USA).
Lipid peroxidation level in the liver homogenates was determined as thiobarbituric acid reactive substances (TBARS) by measuring malondialdehyde ‘MDA’ level according to Mihara and Uchiyama[56]. Briefly, 0.5 mL supernatant of tissue homogenate was mixed with 0.6% thiobarbituric acid (TBA) and 1% orthophosphoric acid solution, and heated in a boiling water bath for 45 min. The pink-coloured chromogen formed by the reaction of TBA with MDA was extracted by n-butanol and measured at 535 nm. The results were expressed as nmol/g tissue.

[2] = tested on: glutathione (GSH) in liver; assay: In vivo reduced glutathione (GSH) level in liver homogenate; design: species or system male Wistar albino rats; settings: rat liver, 100 mg/kg orally for 3 days; for GSH: mean ± SEM, n = 6
Protocol: as §1, §2
Levels of glutathione (GSH) in liver homogenates were assayed by the deproteinization of tissue homogenate. Then […] supernatant was mixed with di-potassium hydrogen phosphate buffer (pH 8) and 0.4% 5,5′-dithiobis-2-nitrobenzoic acid (Ellman’s reagent). The yellow-coloured substance formed was measured at 412 nm. The results were expressed as GSH mg/g tissue.

[3] = Superoxide scavenging assay (pyrogallol autoxidation); settings: for Superoxide scavenging potency relative to ascorbic acid: folds of ascorbic acid; for Superoxide IC50: mean ± SEM of three experiments, pyrogallol autoxidation, 325 nm
Protocol: The improved pyrogallol autoxidation method was used to determine O2^−. RSA of all synthesized compounds as previously described. Briefly, 50 µL of test compounds (12.5, 25, 50,100, and 200 µg/mL) was added to 2900 µl of […] Tris HCl buffer (0.05 M, pH 7.4) containing 1-mM Na2EDTA. Next, 50 µL of 60-mM pyrogallol in1mM HCl had been thoroughly mixed with the mixture. The absorbance of the reaction mixture was measured at A325 nm every 30 s for 5 min. O2^− RSA was expressed by the oxidation degree of a test group in comparison to that of the control. The absorbance at 325 nm was measured against the Tris-HCl buffer every 30 s for 5 min. The percentage of scavenging effect was calculated using the following equation: O2^− radical scavenging %=[(ΔA325, control/T)−(ΔA325nm, sample/T)/ΔA325nm, control/T]×100 where ΔA325 nm, control is the increase in A325 nm of the reaction mixture without the sample and ΔA325 nm, sample is that for the mixture with the sample; T=5 min. The experiments were performed in triplicate.

[4] = DPPH radical scavenging assay; settings: mean ± SEM of three experiments; 30 min, 517 nm
Protocol: The DPPH scavenging activity of all synthesized compounds was measured as previously described by Nahar et al.[48] with some modifications. Briefly, 100 µL of different concentrations of the tested compounds (12.5, 25, 50, 100, and 200 µg/mL) were pipetted into a 96-well plate. Then, 100 µL of 100-µM DPPH methanolic solution were added to each well and the plate was incubated protected from light at room temperature for 30 min. The absorbance of the solution was measured at λ517 nm.[49] Ascorbic acid was used as the positive control while DMSO was the negative control. The percentage of DPPH scavenging activity was calculated according to the following equation: % of DPPH scavenging=[(Acontrol–Asample)/Acontrol] ×100, where Acontrol is the absorbance of the control reaction (with all reagents except the test compound), and Asample is the absorbance of the test sample. […] All tests were performed in triplicates.

[5] = NO scavenging assay (sodium nitroprusside / Griess reagent); settings: mean ± SEM of three experiments; 90 min, 546 nm
Protocol: The NO scavenging activity of all synthesized compounds was measured as previously described by Ho et al.[50] Briefly, 50 µL of different concentrations of the tested compounds (12.5, 25, 50,100, and 200 µg/mL) were pipetted into a 96-well plate. Then, 50 µL of 10-mM sodium nitroprussides dissolved in phosphate-buffered saline PBS (pH 7.4) were added to each well and the plate was incubated for 90 min at room temperature. Next, an equal volume of Griess reagent (1% of sulphanilamide and 0.1% of naphthyl ethylene diamine in 2.5% […]) was added to each well to measure the nitrite content. The absorbance of the formed pink-coloured chromophore was measured at λ 546 nm. DMSO and ascorbic acid were used as the negative and positive control, respectively. All tests were performed in triplicate. The percentage of NO scavenging activity was calculated according to the following equation: % of NO scavenging=[(Acontrol−Asample)/Acontrol]×100 where Acontrol is the absorbance of the control reaction (with all reagents except the test compound), and Asample is the absorbance of the test sample.

[6] = tested on: Catalase (CAT) activity in liver; assay: In vivo catalase (CAT) activity in liver homogenate; design: species or system male Wistar albino rats; settings: rat liver, 100 mg/kg orally for 3 days; for CAT: mean ± SEM, n = 6
Protocol: as §1, §2
Catalase activity in 10% liver homogenates was determined spectrophotometrically according to Sinha AK[54]. The decrease in absorbance at 240 nm due to H2O2 decomposition was measured and the results were expressed in U/mg tissue.

| Compound | melting point [°C] | DPPH IC50 [4] [µg/mL] | NO IC50 [5] [µg/mL] | TBARS [1] [nmol/g tissue] | GSH [2] [mg/g tissue] | Superoxide scavenging potency relative to ascorbic acid [3] [folds] | Superoxide IC50 [3] [µg/mL] | CAT [6] [U/mg tissue] | Increase in GSH compared to control group [2] | Increase of CAT enzyme level compared to control group [6] |
| --- | --- | --- | --- | --- | --- | --- | --- | --- | --- | --- |
| COc1ccc(C2=NOC(c3cn(-c4ccccc4)nc3-c3ccc4ccccc4c3)C2)cc1 (stereo not drawn) [Compound 5b, 3-(4-Methoxyphenyl)-5-(3-naphthalen-2-yl-1-phenyl-1H-pyrazol-4-yl)-4,5-dihydro isoxazole] | 197 to 198 | 46.62 ± 1.63 | 75.53 ± 1.43 | 0.330 ± 0.02 | 10.71 ± 0.86 | – | 101.8 ± 1.39 | 48.19 ± 1.24 | about 52% | about 101% |
| Cc1ccc(C2=NN(C(N)=S)C(c3cn(-c4ccccc4)nc3-c3ccc4ccccc4c3)C2)cc1 (stereo not drawn) [Compound 6c, 3′-Naphthalen-2-yl-1′-phenyl-5-p-tolyl-3,4-dihydro-1’H-[3,4′]bipyrazolyl-2-carbo thioic acid amide] | 184 to 185 | 18.98 ± 1.73 | 23.79 ± 0.83 | 0.428 ± 0.02 | 9.01 ± 0.72 | – | 140.17 ± 1.52 | 44.38 ± 2.81 | – | – |
| NC(=S)N1N=C(c2ccc(Cl)c(Cl)c2)CC1c1cn(-c2ccccc2)nc1-c1ccc2ccccc2c1 (stereo not drawn) [Compound 6e] | 180 to 181 | 9.66 ± 0.34 | 71.39 ± 1.25 | 0.344 ± 0.05 | 10.65 ± 0.97 | – | 87.31 ± 1.58 | 57.84 ± 3.50 | ~51% | ~141% |

Further lines, with some results ahead:

| melting point [°C] | DPPH IC50 [4] [µg/mL] | NO IC50 [5] [µg/mL] | Compound | TBARS [1] [nmol/g tissue] | GSH [2] [mg/g tissue] | Superoxide scavenging potency relative to ascorbic acid [3] [folds] | Superoxide IC50 [3] [µg/mL] | CAT [6] [U/mg tissue] | Increase in GSH compared to control group [2] | Increase of CAT enzyme level compared to control group [6] |
| --- | --- | --- | --- | --- | --- | --- | --- | --- | --- | --- |
| 172 to 173 | 13.99 ± 0.78 | 27.65 ± 1.53 | c1ccc(C2=NNC(c3cn(-c4ccccc4)nc3-c3ccc4ccccc4c3)C2)cc1 (stereo not drawn) [Compound 3a, 3′-Naphthalen-2-yl-5,1′-diphenyl-3,4-dihydro-2H,1’H-[3,4′]bipyrazole] | 0.350 ± 0.05 | 7.00 ± 0.27 | 2.5 | 50.42 ± 1.45 | 36.21 ± 3.49 | – | – |
| 172 to 173 | 19.56 ± 1.06 | 57.01 ± 1.29 | Clc1ccc(C2=NN(c3ccccc3)C(c3cn(-c4ccccc4)nc3-c3ccc4ccccc4c3)C2)cc1Cl (stereo not drawn) [Compound 4e, 5-(3,4-Dichlorophenyl)-3′-naphthalen-2-yl-2,1′-diphenyl-3,4-dihydro-2H,1’H-[3,4′]-bipyrazole] | 0.402 ± 0.04 | 7.05 ± 0.56 | – | 130.19 ± 1.1 | 43.48 ± 4.51 | – | – |
| 181 to 182 | 47.27 ± 1.13 | 38.99 ± 1.31 | Cc1ccc(C2=NOC(c3cn(-c4ccccc4)nc3-c3ccc4ccccc4c3)C2)cc1 (stereo not drawn) [Compound 5c, 5-(3-Naphthalen-2-yl-1-phenyl-1H-pyrazol-4-yl)-3-p-tolyl-4,5-dihydroisoxazole] | 0.346 ± 0.01 | 10.92 ± 0.96 | 2.8 | 44.54 ± 1.44 | 45.42 ± 4.30 | ~55% | ~89% |
| 198 to 199 | 20.47 ± 1.43 | 36.37 ± 0.75 | NC(=S)N1N=C(c2ccccc2)CC1c1cn(-c2ccccc2)nc1-c1ccc2ccccc2c1 (stereo not drawn) [Compound 6a, 3′-Naphthalen-2-yl-5,1′-diphenyl-3,4-dihydro-1’H-[3,4′]bipyrazolyl-2-carbothioic acid amide] | 0.348 ± 0.03 | 7.07 ± 0.35 | – | 127.25 ± 1.47 | 27.97 ± 3.46 | – | – |
